Source: publication PMC9303812, “Asymmetrically Substituted m‐Terphenyl Phosphates Inhibit the Transcription Factor STAT5a” (Chembiochem, 2021)
Like-named read-outs stand apart in the source and are kept apart here.

Molecular target: T1, STAT5b (Homo sapiens, UniProt P51692)
T1 sequence (P51692 1-787): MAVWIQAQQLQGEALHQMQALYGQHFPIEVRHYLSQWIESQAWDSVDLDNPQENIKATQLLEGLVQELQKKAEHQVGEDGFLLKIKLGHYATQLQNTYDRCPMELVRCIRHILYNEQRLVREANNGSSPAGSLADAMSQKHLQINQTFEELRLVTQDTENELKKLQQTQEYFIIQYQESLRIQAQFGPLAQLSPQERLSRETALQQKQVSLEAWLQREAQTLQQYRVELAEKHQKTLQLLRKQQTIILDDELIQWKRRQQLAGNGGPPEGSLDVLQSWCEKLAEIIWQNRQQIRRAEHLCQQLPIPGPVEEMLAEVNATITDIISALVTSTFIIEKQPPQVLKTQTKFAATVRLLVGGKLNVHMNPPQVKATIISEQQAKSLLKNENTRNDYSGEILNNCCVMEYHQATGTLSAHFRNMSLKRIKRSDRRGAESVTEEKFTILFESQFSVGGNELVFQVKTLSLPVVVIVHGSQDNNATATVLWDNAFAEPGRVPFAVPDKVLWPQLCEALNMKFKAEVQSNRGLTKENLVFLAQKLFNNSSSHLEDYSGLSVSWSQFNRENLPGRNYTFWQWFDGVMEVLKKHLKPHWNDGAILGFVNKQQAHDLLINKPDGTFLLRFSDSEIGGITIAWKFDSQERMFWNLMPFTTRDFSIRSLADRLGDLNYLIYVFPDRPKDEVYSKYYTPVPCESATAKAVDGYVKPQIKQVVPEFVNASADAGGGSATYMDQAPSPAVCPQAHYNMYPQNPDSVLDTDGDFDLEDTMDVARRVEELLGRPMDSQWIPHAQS
Assay: Fluorescence polarization (FP) binding assay, STAT5b
Protocol: Table S1: Activities of test compounds against STAT5a and STAT5b in FP assays . Experiments were carried out in triplicate (n = 3) unless stated otherwise. n/a: not applicable.
[a]data taken from the literature.[1]
Ki values were calculated from IC50 values using the published equation.[2] […]
Table S2: Activities of 12 against STAT5 proteins in FP assays.
Fluorescence polarization assays
Fluorescence polarization assays were essentially carried out as previously described.[1] These assays quantitate to which extent a test compound is able to interfere with binding between a STAT protein and a fluorescein-labeled phosphotyrosine-containing peptide, which is known to bind to the SH2 domain of the respective STAT protein. The following protein […]
concentrations were used: 100 nM for STAT1, 150 nM for STAT3, 30 nM for STAT4, 180 nM for STAT5a, 90 nM for STAT5b and 105 nM for STAT6. All peptides were used at a concentration of 10 nM. The following peptides were used: 5 -carboxyfluorescein -GpYDKPHVL for STAT1; 5-carboxyfluorescein -GpYLPQTV-NH2 for STAT3; 5-carboxyfluorescein-GpYLPQNID-OH for STAT4; 5-carboxyfluorescein-GpYLVLDKW for STAT5a/b, and 5-carboxyfluorescein-GpYVPWQDLI-OH for STAT6. As a buffer system, 10 mM Tris (pH 8.0), 50 mM NaCl, 1 mM EDTA, 1 mM DTT, 0.1 % Nonidet P-40 substitute, and 2 % DMSO in water was used. All compounds tested were incubated for 1 h with the protein. Subsequently, the fluorescein-labeled peptide was added and the fluorescence polarization was measured with an Infinite F500 plate reader (Tecan) after another hour. IC50 values were converted to Ki-values using the published equation.[2]

Structure (SMILES): COc1cc(-c2cc(-c3cc(F)c(F)c(F)c3)cc(C(F)P(=O)(O)O)c2)cc(OC)c1OC (stereo not shown) [compound 12]
- Ki (FP assay, Ki calculated from IC50 (n=3; 6 a n=2), read-out: STAT5b Ki): 24.9 ± 3.3 µM
- IC50 (FP assay, n=3 (6a n=2), read-out: STAT5b IC50): 50.7 ± 6.8 µM

Structure (SMILES): COc1cc(-c2cc(OP(=O)(O)O)cc(-c3cc(F)c(F)c(F)c3)c2)cc(OC)c1OC [6 b]
- IC50: 59.4 ± 3.4 µM
- Ki: 29.2 ± 1.7 µM
